Data as given in patent US20260232629A1, “Covalent Degraders of Oncogenic Transcription Factors” (The Regents of the University of California, priority 2023, published 2026).

Legend:
[1] = molecular target: T1, CTNNB1 with a N-terminal HiBiT tag (Homo sapiens, UniProt P35222); experiment: CTNNB1 HiBiT cell line assay (Nano-Glo HiBiT lytic detection); assay type: cell-based; conditions: HEK293 cells expressing endogenous N-terminal HiBiT-tagged CTNNB1
T1 construct: N-terminal HiBiT tag incorporated into the endogenous loci of CTNNB1; host or cells: HEK293 (CTNNB1 HiBiT knock-in line)
T1 sequence (P35222 1-781): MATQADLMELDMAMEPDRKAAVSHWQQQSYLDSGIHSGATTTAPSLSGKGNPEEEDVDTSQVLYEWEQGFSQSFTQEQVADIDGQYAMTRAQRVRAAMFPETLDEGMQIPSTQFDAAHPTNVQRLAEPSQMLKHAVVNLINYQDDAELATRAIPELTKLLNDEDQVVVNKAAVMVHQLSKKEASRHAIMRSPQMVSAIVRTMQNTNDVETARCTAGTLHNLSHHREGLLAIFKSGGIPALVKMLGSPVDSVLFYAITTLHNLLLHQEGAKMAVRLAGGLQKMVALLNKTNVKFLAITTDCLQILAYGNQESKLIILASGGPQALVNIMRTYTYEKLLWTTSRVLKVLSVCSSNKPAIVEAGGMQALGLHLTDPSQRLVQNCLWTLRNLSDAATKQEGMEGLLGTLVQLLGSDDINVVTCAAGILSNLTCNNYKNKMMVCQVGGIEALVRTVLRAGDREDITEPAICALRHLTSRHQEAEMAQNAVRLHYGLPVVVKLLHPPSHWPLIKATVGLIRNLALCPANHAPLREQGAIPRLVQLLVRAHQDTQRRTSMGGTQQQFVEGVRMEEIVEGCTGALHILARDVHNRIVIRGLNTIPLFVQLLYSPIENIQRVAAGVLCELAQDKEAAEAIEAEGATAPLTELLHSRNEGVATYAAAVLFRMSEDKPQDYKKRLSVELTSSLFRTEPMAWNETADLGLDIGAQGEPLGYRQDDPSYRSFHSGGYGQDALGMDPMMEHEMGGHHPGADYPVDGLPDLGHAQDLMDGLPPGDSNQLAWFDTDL
Procedure: To identify a covalent degrader of CTNNB1, we screened a library of 2100 cysteine-reactive covalent ligands consisting of acrylamides and chloroacetamides in HEK293 cells expressing CTNNB1 with a N-terminal HiBiT tag incorporated into the endogenous loci of CTNNB1. We identified 17 hits lowered CTNNB1 levels.
Covalent ligand screen and dose responses were conducted using Promega Nano-Glo HiBiT Lytic Detection System (N3040) and CellTiter-Glo 2.0 Assay (G9242). HiBiT cells were seeded into 96-well plates (Corning 3917) at 35,000 cells per 100 μL of media and were left overnight to adhere. Cells were treated with 25 μL of media containing 1:125 dilution from a 1000×DMSO compound stock and treated for either 6 hrs, 12 hrs, or 24 hrs. […] 125 μL of CTG or Lytic detection system reagents were added to each well. To assess the cells in the supernatant, half of the plates had the media removed prior to the addition of CTG or lytic detection system reagents. Plates were rocked for 15 minutes prior to their luminescence readout on the Tecan Spark Plate reader (30086376).

[2] = molecular target: T2, pure human CTNNB1 protein (Homo sapiens, UniProt P35222); experiment: Gel-based ABPP with CTNNB1 pure protein (IA-Rhodamine displacement); assay type: binding; conditions: displacement of cysteine-reactive fluorescent probe
T2 sequence (P35222 1-781): T1 sequence (P35222 1-781)
Procedure: CTNNB1 pure protein (0.1 μg/25 μL in PBS) was treated with either DMSO vehicle or covalent ligand at 37° C. for 30 min, and subsequently treated with 0.1 μM IA-Rhodamine (Setareh Biotech) for 1 h at RT in the dark. The reaction was stopped by addition of 4×reducing Laemmli SDS sample loading buffer (Alfa Aesar). After boiling at 95° C. for 5 min, the samples were separated on precast 4-20% Criterion TGX gels (Bio-Rad) and were analyzed by in-gel fluorescence using a ChemiDoc MP (Bio-Rad).

[3] = molecular target: T3, proteome-wide cysteine-reactivity (C619 on CTNNB1) (Homo sapiens, UniProt P35222); experiment: isoDTB-ABPP, proteome-wide cysteine-reactivity in cells; assay type: cell-based
T3 construct: endogenous in cells
T3 sequence (P35222 1-781): T1 sequence (P35222 1-781)
Source text: We next wanted to confirm that EN83 engages CTNNB1 in cells. […] We next performed a mass spectrometry-based ABPP or isodesthiobiotin-ABPP (isoDTB-ABPP) to map overall proteome-wide cysteine-reactivity of EN83 in cells using previously established methods. […] Among the off-targets of EN83, none of the targets were within the Wnt signaling pathway, including AXIN1, BTRC, or GSK3A or GSK3B.

CTNNB1 [4] = molecular target: T4, CTNNB1 (Homo sapiens, UniProt P35222); experiment: Cellular thermal shift assay; assay type: cell-based; conditions: cellular treatment
T4 construct: endogenous in cells; host or cells: HEK293T, HT29, COLO-201, SW480
T4 sequence (P35222 1-781): T1 sequence (P35222 1-781)

[5] = system: FLAG-tagged wild-type, C439S, C466S, C520S, or C619S mutant CTNNB1; experiment: Degradation of FLAG-tagged wild-type or cysteine-to-serine mutant CTNNB1 in cells; assay type: cell-based; conditions: FLAG-tagged CTNNB1 wild-type vs C439S
Source text: We next sought to confirm the contributions of the cysteines targeted by EN83 in CTNNB1 to CTNNB1 degradation.

CTNNB1 [6] = molecular target: T4, CTNNB1; experiment: Western blotting of CTNNB1 in cells; assay type: cell-based; conditions: proteasome dependence
Procedure: Pelleted cells are lysed with CST buffer containing protease inhibitor cocktail (Pierce A32955). Samples were centrifuged at 20,000 g for 20 min at 4° C. to remove cell debris. Samples' protein content was normalized to run 30 μg per well. Samples were then boiled for 8 min at 90° C. after addition of 4×reducing Laemmli SDS sample loading buffer (Alfa Aesar) and ran on precast 4-20% Criterion TGX gels (Bio-Rad).
Antibodies to CTNNB1 (Cell Signaling Technology, 8814S), GAPDH (Proteintech Group Inc., 60004-1-Ig or Cell Signaling Technology, 14C10), and DDDDK tag (Abcam, ab205606) were diluted per recommended manufacturers' procedures. Proteins were resolved by SDS/PAGE and transferred to nitrocellulose membranes using the BioRad system (1704271 and 1704150). Blots were blocked with 5% BSA in Tris-buffered saline containing Tween 20 (TBST) solution for 1 hour at room temperature, washed in TBST, and probed with primary antibody diluted in recommended diluent per manufacturer overnight at 4° C. Following washes with TBST, the blots were incubated in the dark with secondary antibodies purchased from Ly-Cor and used at 1:10,000 dilution in 5% BSA in TBST at room temperature. Blots were visualized using an Odyssey Li-Cor scanner after additional washes. If additional primary antibody incubations were required the membrane was stripped using ReBlot Plus Strong Antibody Stripping Solution (EMD Millipore, 2504), washed and blocked again before being reincubated with primary antibody.

CTNNB1 pure protein = molecular target: T5, CTNNB1 pure protein (Homo sapiens, UniProt P35222); experiment: NF686 probe labeling on CTNNB1 pure protein; assay type: binding; conditions: alkyne probe, click to fluorescent azide, in-gel fluorescence
T5 sequence (P35222 1-781): T1 sequence (P35222 1-781)
Procedure: CTNNB1 pure protein (0.2 μg/50 μL in PBS) was treated with either DMSO vehicle or NF686 at 37° C. for 30 min. Click reagents Azide-Fluor 545 (Click Chemistry Tools, Inc. AZ109-5), Copper (II) Sulfate, and TBTA (TCI Chemicals, T2993) were added to have a final concentration of 21.8 μM, 873.4 μM, and 47.2 μg/mL, respectively, for 1 hr at RT in the dark. The reaction was stopped by addition of 4×reducing Laemmli SDS sample loading buffer (Alfa Aesar). After boiling samples at 95° C. for 5 min, the samples were separated on precast 4-20% Criterion TGX gels (Bio-Rad). Probe-labeled proteins were analyzed by in-gel fluorescence using a ChemiDoc MP (Bio-Rad).

CTNNB1 [7] = molecular target: T4, CTNNB1; experiment: Alkyne probe enrichment of CTNNB1 from cells; assay type: cell-based; conditions: in cells; GAPDH as unrelated target

Row | CTNNB1 protein levels by Western blotting (CTNNB1 [6]) | SMILES | CTNNB1 HiBiT levels [1] | binding to CTNNB1 by gel-based ABPP [2] | further results
1 | – | COc1ccc(OC)c(C2CCCN2C(=O)CCl)c1 (racemic) [EN83] | dose-responsive CTNNB1 loss that was significantly attenuated by proteasome or NEDDylation inhibition | dose-responsively displaced cysteine-reactive fluorescent probe labeling of pure human CTNNB1 protein | number of other targets significantly engaged by over 50% ([3]; among 8251 cysteines detected and quantified, three biological replicates): 139; proteome-wide selectivity ([3]; isoDTB-ABPP in cells): only moderately selective; engagement of CTNNB1 cysteine in cells ([3]; isoDTB-ABPP, three biological replicates): significantly engaged C619 on CTNNB1; thermal stability of CTNNB1 in cells (CTNNB1 [4]): significant thermal destabilization of CTNNB1 in cells; effect of cysteine mutation on CTNNB1 degradation [5]: mutation of C466, C520, or C619, but not C439, to serines significantly attenuated CTNNB1 degradation in cells
2 | does not alter CTNNB1 levels | CCC(=O)N1CCCC1c1cc(OC)ccc1OC (stereo not drawn) [NF602, 1-(2-(2,5-dimethoxyphenyl)pyrrolidin-1-yl)propan-1-one] | does not alter CTNNB1 levels | does not show binding to CTNNB1 | –
3 | – | C#CCCCNC(=O)c1ccc(OC)c([C@@H]2CCCN2C(=O)CCl)c1 [NF686, (S)-3-(1-(2-chloroacetyl)pyrrolidin-2-yl)-4-methoxy-N-(pent-4-yn-1-yl)benzamide] | – | – | direct probe labeling of pure CTNNB1 protein (CTNNB1 pure protein): direct covalent dose-responsive probe labeling of pure CTNNB1 protein; enrichment of CTNNB1 from cells with alkyne probe (CTNNB1 [7]): CTNNB1 could be enriched from cells with the probes without enriching unrelated targets such as GAPDH
4 | confirmed to be proteasome-dependent | COc1ccc(C(F)(F)F)cc1C1CCCN1C(=O)CCl (stereo not drawn) [NF740, 2-chloro-1-(2-(2-methoxy-5-(trifluoromethyl)phenyl)pyrrolidin-1-yl)ethan-1-one] | lowering CTNNB1 HiBiT levels in HEK293 cells in a dose-responsive manner | tolerated | –
5 | confirmed to be proteasome-dependent | COc1ccc(C(F)(F)F)c(C2CCCN2C(=O)CCl)c1 (stereo not drawn) [NF741, 2-chloro-1-(2-(5-methoxy-2-(trifluoromethyl)phenyl)pyrrolidin-1-yl)ethan-1-one] | lowering CTNNB1 HiBiT levels in HEK293 cells in a dose-responsive manner | tolerated | –

Row | SMILES | CTNNB1 protein levels by Western blotting (CTNNB1 [6]) | CTNNB1 HiBiT levels [1] | binding to CTNNB1 by gel-based ABPP [2] | further results
6 | COc1ccc(C(F)(F)F)c(C2CCCN2C(=O)/C=C/C(=O)c2ccccc2)c1 (stereo not drawn) [NF764, (E)-1-(2-(5-methoxy-2-(trifluoromethyl)phenyl)pyrrolidin-1-yl)-4-phenylbut-2-ene-1,4-dione] | lowered CTNNB1 protein levels in cells in a proteasome-dependent manner | more potent loss of CTNNB1 HiBiT levels | improved CTNNB1 binding | –
7 | COc1ccc(C(F)(F)F)cc1C1CCCN1C(=O)/C=C/C(=O)c1ccccc1 (stereo not drawn) [NF765, (E)-1-(2-(2-methoxy-5-(trifluoromethyl)phenyl)pyrrolidin-1-yl)-4-phenylbut-2-ene-1,4-dione] | lowered CTNNB1 protein levels in cells in a proteasome-dependent manner | more potent loss of CTNNB1 HiBiT levels | improved CTNNB1 binding | –
